Measured values published in patent publication US7749981B2, “Drug-eluting stents coated with non-nucleotide P2Y12 receptor antagonist compound” (Inspire Pharmaceuticals, Inc., priority 2005, dated 2010).

Tested on: washed human platelets
Test: Inhibition of ADP-induced platelet aggregation in washed human platelets
Assay type: cell-based
Description: Isolation of Platelets: Human blood is obtained from informed healthy adult volunteers. Blood is collected into one-sixth volume of acid/citrate/dextrose (ACD) buffer (85 mM sodium citrate, 65 mM citric acid, and 100 mM glucose). Collected blood is placed in a water bath at 37° C. for 30 minutes. Blood is then centrifuged at 275×g for 16 minutes at room temperature and the platelet-rich plasma is removed and centrifuged at 2200×g for 13 minutes at room temperature. The platelet pellet is resuspended in 40 mL of HEPES-buffered Tyrode's solution (137 mM NaCl, 2.7 mM KCl, 1 mM MgCl2, 2 mM CaCl2, 12 mM NaHCO3, 0.36 mM NaH2PO4, 5.5 mM glucose, 5 mM HEPES pH 7.4, 0.35% bovine serum albumin or 0.35% human serum albumin) containing 10 U/mL heparin and 5 μM (final concentration) prostaglandin 12 (PGI2). The platelet suspension is incubated in a 37° C. water bath for 10 minutes and then 5 μM (final conc.) PGI2 is added just before centrifugation at 1900×g for 8 minutes. The resulting pellet is resuspended in 40 mL of HEPES-buffered Tyrode's solution containing 5 μM (final concentration) PGI2 and then is incubated for 10 minutes in a 37° C. water bath. A small aliquot (500 μL) of the platelet suspension is removed for platelet counting. Prior to centrifugation 5 μM (final concentration) PGI2 is added to the suspension and then the suspension is centrifuged at 1900×g for 8 minutes. The pellet is resuspended at a density of 5×10^8 cells/mL in HEPES-buffered Tyrode's solution containing 0.05 U/mL apyrase.
Aggregation Studies: ADP-induced platelet aggregation is determined by measuring the transmission of light through a 0.5 ml suspension of stirred (1000 rpm) washed platelets in a lumi-aggregometer at 37° C. (Chrono-Log Corp. Havertown, Pa.). The baseline of the instrument is set using 0.5 ml of Hepes-buffered Tyrode's solution. Prior to aggregation measurements, the platelet suspension is supplemented with 1 mg/ml fibrinogen. Platelet aggregation is initiated by the addition of indicated concentrations of ADP or other agonists, and the light transmission is continuously recorded for at least 8 min. When inhibitors of platelet aggregation are tested, platelets are incubated for 2 min in the presence of indicated concentrations of inhibitor before addition of ADP or other agonists, and the response is recorded for at least 8 min. The potency of agonists and inhibitors of platelet aggregation is calculated from both the rate of aggregation and the maximal extent of aggregation obtained for each determination by fitting the data to a four-parameter logistic equation using the GraphPad software package (GraphPad Corp. San Diego, Calif.).
IC50 values represent the concentration of antagonist necessary to inhibit by 50% the aggregation elicited by a given concentration of ADP.
Platelet IC50 data were determined using washed human platelets, according to the protocol of example 14. Agonist challenge (ADP) typically in the range of 1-5 μM.

CCNC(=O)Nc1ncnc2c1ncn2C1CC(COCc2ccsc2C(=O)O)C2OC(C=Cc3ccccc3)OC21 (centres unmarked) [Compound 298, 3-{6-[6-(3-Ethyl-ureido)-purin-9-yl]-2-styryl-tetrahydro-cyclopenta[1,3]dioxol-4-ylmethoxymethyl}-thiophene-2-carboxylic acid]
IC50 (Homo sapiens, Platelet, read-out: PLATELET DATA IC50 (uM) Washed Platelets, washed human platelets, agonist challenge (ADP) typically 1-5 μM, average of two experiments or more): 0.081 µM
activity as antagonists of P2Y12-mediated platelet aggregation (in words) (comment on Table 1 data, washed human platelets): are active
